The values that follow come from patent US8791132B2, “Compounds and methods for treatment of hypertension” (Medivation Technologies, Inc., priority 2011, dated 2014).

Where two headings read alike, the source gives them in different places.

Experiment [1] addresses T1, human recombinant adrenergic α2A receptor (Homo sapiens, UniProt P08913).
T1 construct: expressed in transfected cells; host or cells: insect Sf9 cells
T1 sequence (P08913 1-465): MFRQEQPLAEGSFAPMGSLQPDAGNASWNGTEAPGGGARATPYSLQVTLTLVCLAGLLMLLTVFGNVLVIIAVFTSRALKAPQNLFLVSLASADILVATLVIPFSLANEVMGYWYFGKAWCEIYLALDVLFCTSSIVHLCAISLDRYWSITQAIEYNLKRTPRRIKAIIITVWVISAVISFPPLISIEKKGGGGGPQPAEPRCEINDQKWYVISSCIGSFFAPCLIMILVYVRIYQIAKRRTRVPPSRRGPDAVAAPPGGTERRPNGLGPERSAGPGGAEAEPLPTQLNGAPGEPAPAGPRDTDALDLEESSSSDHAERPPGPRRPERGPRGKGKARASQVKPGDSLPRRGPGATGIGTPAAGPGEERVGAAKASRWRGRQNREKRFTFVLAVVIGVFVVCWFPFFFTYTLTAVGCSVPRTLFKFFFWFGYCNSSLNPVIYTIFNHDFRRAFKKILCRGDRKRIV
Briefly: Radioligand binding, adrenergic α2A ([3H]MK-912). Particulars: for Percentage inhibition of ligand binding, Adrenergic α2A (0.1 μM) / Percentage inhibition of ligand binding, Adrenergic α2A: 0.1 µM. The method in brief:
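Displacement of 1 nM [3H]MK-912 from receptor produced in insect Sf9 cells was measured after 60 min at 25 °C. Readout: percent inhibition of specific binding.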

In experiment [2] the target is T2, human recombinant adrenergic α2B receptor (Homo sapiens, UniProt P18089).
T2 construct: expressed in transfected cells; host or cells: CHO-K1
T2 sequence (P18089 1-450): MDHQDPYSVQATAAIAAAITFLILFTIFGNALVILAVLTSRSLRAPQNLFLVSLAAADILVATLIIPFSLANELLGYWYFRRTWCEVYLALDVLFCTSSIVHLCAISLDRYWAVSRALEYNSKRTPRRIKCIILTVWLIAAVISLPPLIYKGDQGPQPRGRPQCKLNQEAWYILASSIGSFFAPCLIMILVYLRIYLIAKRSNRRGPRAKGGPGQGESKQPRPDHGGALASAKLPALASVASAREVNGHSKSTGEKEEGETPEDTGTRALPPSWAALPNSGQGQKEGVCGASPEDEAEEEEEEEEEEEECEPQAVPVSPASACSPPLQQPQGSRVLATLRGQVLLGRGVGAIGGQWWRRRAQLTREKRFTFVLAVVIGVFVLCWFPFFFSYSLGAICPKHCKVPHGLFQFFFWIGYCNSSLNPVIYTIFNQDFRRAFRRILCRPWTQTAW
Briefly: Radioligand binding, adrenergic α2B ([3H]Rauwolscine). The method, boiled down:
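Membranes from CHO-K1 cells expressing human recombinant α2B, in 50 mM Tris-HCl pH 7.4, 12.5 mM MgCl2, 1 mM EDTA, 0.2% BSA, incubated with compound and 2.5 nM [3H]Rauwolscine, 60 min, 25 °C.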

For experiment [3], the target named is T3, rat adrenergic α1B receptor (Rattus norvegicus, UniProt P15823).
T3 construct: rat adrenergic α1B receptor obtained from Wistar Rat liver; from tissue; host or cells: Wistar rat liver
T3 sequence (P15823 1-515): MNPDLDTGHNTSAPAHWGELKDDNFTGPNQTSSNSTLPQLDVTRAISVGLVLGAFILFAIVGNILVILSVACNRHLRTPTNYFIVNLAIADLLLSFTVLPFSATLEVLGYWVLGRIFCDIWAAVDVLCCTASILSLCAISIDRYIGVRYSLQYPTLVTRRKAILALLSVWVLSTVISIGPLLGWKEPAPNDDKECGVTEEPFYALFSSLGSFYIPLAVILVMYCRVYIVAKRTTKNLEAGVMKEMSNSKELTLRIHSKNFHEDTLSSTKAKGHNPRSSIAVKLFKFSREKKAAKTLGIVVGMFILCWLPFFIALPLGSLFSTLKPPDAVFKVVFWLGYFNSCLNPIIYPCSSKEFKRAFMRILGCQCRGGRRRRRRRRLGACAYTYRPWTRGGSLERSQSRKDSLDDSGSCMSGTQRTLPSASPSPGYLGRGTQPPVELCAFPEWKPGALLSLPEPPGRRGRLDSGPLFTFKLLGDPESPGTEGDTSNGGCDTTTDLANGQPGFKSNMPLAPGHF
The experiment can be described thus: Radioligand binding, adrenergic α1B ([3H]Prazosin). The method, boiled down:
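Rat α1B receptor from Wistar rat liver was incubated with 0.25 nM [3H]prazosin for 60 min at 25 °C in 50 mM Tris-HCl, pH 7.4, 0.5 mM EDTA. Non-specific binding was defined with 10 μM phentolamine. Bound radioligand was measured by filtration and counting, reported as percent inhibition of specific binding.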

Where [4] appears, read: read-out: Percentage inhibition of ligand binding, Adrenergic α2A (0.1 μM), compound at 0.1 μM, [3H]MK-912, repeat datapoints each shown.
Setting [5] is: read-out: Percentage inhibition of ligand binding, Adrenergic α2B (0.03 μM), compound at 0.03 μM, [3H]Rauwolscine, repeat datapoints each shown.
[6] abbreviates: read-out: Percentage inhibition of ligand binding, Adrenergic α1B (0.1 μM), compound at 0.1 μM, [3H]Prazosin, repeat datapoints each shown.
The mark [7] stands for this setting: compound at 0.1 μM, [3H]MK-912, repeat assays, each datapoint shown, read-out: Percentage inhibition of ligand binding, Adrenergic α2A.
Setting [8] is: compound at 0.1 μM, [3H]Prazosin, repeat assays, each datapoint shown, read-out: Percentage inhibition of ligand binding, Adrenergic α1B.
Where [9] appears, read: compound at 0.1 μM, [3H]MK-912, repeat datapoints each shown.
Where [10] appears, read: compound at 0.03 μM, [3H]Rauwolscine, repeat assays, each datapoint shown, 0.03 µM.
The mark [11] stands for this setting: compound at 0.1 μM, [3H]Prazosin, repeat assays, each datapoint shown, 0.1 µM.

A word on the inhibition: it is the change of the read-out against control, counted positive when it falls. Consider `Cc1ccc2c(c1)c1c(n2CC(N=[N+]=[N-])c2ccc(F)cc2)CCN2CCCC12` (stereo not drawn) [V-23, 7-(2-azido-2-(4-fluorophenyl)ethyl)-10-methyl-2,3,5,6,7,11c-hexahydro-1H-indolizino[7,8-b]indole], for which the figures for the inhibition at 0.1 µM in experiment [1] (setting [4]) and in experiment [3] (setting [6]) were 109% and 94%, respectively. Further, the inhibition at 0.03 µM in experiment [2] (setting [5]) was found to be 105%.

Regarding `Cc1cccc2c3c(n(CC(O)c4ccncc4)c12)CCN(C)C3` (stereo not drawn) [compound 82, 2-(2,6-dimethyl-1,2,3,4-tetrahydro-pyrido[4,3-b]indol-5-yl)-1-pyridin-4-yl-ethanol], the inhibition at 0.1 µM in experiment [1] (setting [7]) turned out to be 5%; in experiment [3] (setting [8]), 16%. Also, in experiment [2] (compound at 0.03 μM, [3H]Rauwolscine, repeat assays, each datapoint shown, read-out: Percentage inhibition of ligand binding, Adrenergic α2B), the inhibition at 0.03 µM was 79%.

As to `Cc1ccc2c(c1)c1c(n2CC(C)(O)c2cccnc2)C(c2ccccc2)N(C)CC1` (stereo not drawn) [II-112a, 1-(2,6-dimethyl-1-phenyl-1,2,3,4-tetrahydro-β-carbolin-9-yl)-2-pyridin-3-yl-propan-2-ol], in experiment [1] (setting [9]), the “Percentage inhibition of ligand binding, Adrenergic α2A (0.1 μM)” value is given as 10%. Also, the inhibition at 0.03 µM in experiment [2] (setting [5]) was 36%. In experiment [3] (setting [6]), the inhibition at 0.1 µM turned out to be 5%.

As for `Cc1ccc2c(c1)c1c(n2CC(O)c2cccnc2)CCN(CCO)C1` (single isomer, unassigned) [21a], in experiment [1] (compound at 0.1 μM, [3H]MK-912, repeat assays, each datapoint shown), the “Percentage inhibition of ligand binding, Adrenergic α2A” value was −1%. In experiment [2] (setting [10]), the “Percentage inhibition of ligand binding, Adrenergic α2B” value was −2%. In addition, the “Percentage inhibition of ligand binding, Adrenergic α1B” value in experiment [3] (setting [11]) is on record as 5%.

For `Cc1ccc2c(c1)c1c(n2CC(O)c2ccnc3ccccc23)CCN(C)C1` (stereo not drawn) [II-90, 2-(2,8-dimethyl-3,4-dihydro-1H-pyrido[4,3-b]indol-5(2H)-yl)-1-(quinolin-4-yl)ethanol], the inhibition at 0.1 µM in experiment [1] (0.1 μM compound, read-out: Percentage inhibition of ligand binding, Adrenergic α2A) is 19%; in experiment [3] (0.1 μM compound, read-out: Percentage inhibition of ligand binding, Adrenergic α1B), 62%. Moreover, in experiment [2] (0.03 μM compound, read-out: Percentage inhibition of ligand binding, Adrenergic α2B), the inhibition at 0.03 µM is 55%.

With `Cc1cnc2c(c1)c1c(n2CC(O)c2ccncc2)CCN(C)C1` (stereo not drawn) [compound 55, 2-(3,6-dimethyl-5,6,7,8-tetrahydro-1,6,9-triaza-fluoren-9-yl)-1-pyridin-4-yl-ethanol], the inhibition at 0.1 µM in experiment [1] (setting [7]) amounted to 13%. The “Percentage inhibition of ligand binding, Adrenergic α2B” value in experiment [2] (setting [10]) amounted to 63%. Further, in experiment [3] (setting [11]), the “Percentage inhibition of ligand binding, Adrenergic α1B” value stood at 37%.

Take `Cc1ccc2c(c1)c1c(n2CC(c2ccc(F)cc2)N(C)C)CCN(C)C1` (single isomer, unassigned) [II-14b, 2-(2,8-dimethyl-3,4-dihydro-1H-pyrido[4,3-b]indol-5(2H)-yl)-1-(4-fluorophenyl)-N,N-dimethylethanamine]: in experiment [1] (0.1 μM compound), the “Percentage inhibition of ligand binding, Adrenergic α2A” value amounted to 17%. The “Percentage inhibition of ligand binding, Adrenergic α2B” value in experiment [2] (0.03 μM compound, 0.03 µM) is listed as 33%. In experiment [3] (0.1 μM compound, 0.1 µM), the “Percentage inhibition of ligand binding, Adrenergic α1B” value is listed as 8%.

Consider `CC(O)(Cn1c2c(c3cc(Cl)cnc31)C1CCCN1CC2)c1cccnc1` (single isomer, unassigned) [IV-210b], for which, in experiment [1] (setting [9]), the “Percentage inhibition of ligand binding, Adrenergic α2A (0.1 μM)” value stood at 8%. The “Percentage inhibition of ligand binding, Adrenergic α2B (0.03 μM)” value in experiment [2] (compound at 0.03 μM, [3H]Rauwolscine, repeat datapoints each shown, 0.03 µM) is given as 29%. In experiment [3] (compound at 0.1 μM, [3H]Prazosin, repeat datapoints each shown, 0.1 µM), the “Percentage inhibition of ligand binding, Adrenergic α1B (0.1 μM)” value came to 10%.

Consider `Cc1ccc2c(c1)c1c(n2CC(O)c2ccncc2)CCNC1` (single isomer, unassigned) [39b, 2-(8-methyl-1,2,3,4-tetrahydro-pyrido[4,3-b]indol-5-yl)-1-pyridin-4-yl-ethanol], for which the inhibition at 0.1 µM in experiment [1] (setting [7]) came to 1%; in experiment [3] (setting [8]), 24%. The “Percentage inhibition of ligand binding, Adrenergic α2B” value in experiment [2] (setting [10]) is 28%.

As to `Cc1ccc2c(c1)c1c(n2CC(C)(O)c2cncc(C(=O)O)c2)CCN(C)C1` (stereo not drawn) [II-141, 5-(1-(1,2,3,4-tetrahydro-2,8-dimethylpyrido[4,3-b]indol-5-yl)-2-hydroxypropan-2-yl)pyridine-3-carboxylic acid], the inhibition at 0.1 µM in experiment [1] (setting [4]) was -2%; in experiment [3] (setting [6]) it was 7%. Also, the inhibition at 0.03 µM in experiment [2] (setting [5]) came to 22%.

Regarding `Cc1ccc2c(c1)c1c(n2CC(C)(O)c2cnco2)CCN(C)C1` (stereo not drawn) [II-142, 1-(1,2,3,4-tetrahydro-2,8-dimethylpyrido[4,3-b]indol-5-yl)-2-(oxazol-5-yl)propan-2-ol], the results for the inhibition at 0.1 µM in experiment [1] (setting [4]) and in experiment [3] (setting [6]) were -4% and 5%, respectively. Moreover, the inhibition at 0.03 µM in experiment [2] (setting [5]) was determined as 23%.
